Experimental findings from PubChem BioAssay (NCI) are described below.

Several values for one entry are separate records, joined by “and”; a condition that tells them apart may be missing. Equal entries are not always repeated.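 Assay format: 96-well plates, 48-hour exposure. Here, GI50 denotes the concentration required for 50% inhibition of growth. TGI denotes the concentration required for complete inhibition of growth.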

Some test systems named below: PC-3 prostate; SK-MEL-5 melanoma; HCT-116 colon; SW-620 colon; IGROV1 ovarian; CAKI-1 renal; SK-OV-3 ovarian; UACC-257 melanoma; LOX IMVI melanoma; OVCAR-8 ovarian.
Test in all cases: NCI tumour cell line growth inhibition, 48 h

Take `COc1ccc(-c2nc3ccc(Cc4ccc5nc(-c6ccc(OC)cc6)[nH]c5c4)cc3[nH]2)cc1`: the GI50 was 0.0428 µM in the test with PC-3 prostate; 0.0193 µM in the test on SK-MEL-5 melanoma; 0.0339 µM with HCT-116 colon; under 0.0151 µM with SW-620 colon; 0.0445 µM in the test on IGROV1 ovarian; 0.0509 µM in the test with CAKI-1 renal. In addition, the GI50 was 0.0314 µM in the test on SK-OV-3 ovarian, 1.5 µM in the test on UACC-257 melanoma, 0.0543 µM in the test with LOX IMVI melanoma and 0.0438 µM in the test on OVCAR-8 ovarian. Besides, the TGI came to 1.2 µM in the test with PC-3 prostate; 1.27 µM in the test with SK-MEL-5 melanoma; 0.14 µM with HCT-116 colon; 0.173 µM in the test with SW-620 colon; 2.26 µM in the test on IGROV1 ovarian; 1.84 µM in the test with CAKI-1 renal. For the same molecule, the TGI was 1.89 µM with SK-OV-3 ovarian, 3.31 µM in the test with UACC-257 melanoma, 0.217 µM in the test with LOX IMVI melanoma and 1.17 µM in the test with OVCAR-8 ovarian.

On to `CC(=O)Oc1ccc(C2=Cc3ccc(OC(C)=O)cc3OC2C)cc1` (centres undefined), for which the GI50 is 5.8 µM with PC-3 prostate; 7.24 µM in the test on SK-MEL-5 melanoma; 4.87 µM in the test on HCT-116 colon; 6.33 µM in the test on SW-620 colon; 3.41 µM in the test on IGROV1 ovarian; 2.31 µM in the test on CAKI-1 renal. Besides, the GI50 was 6.56 µM in the test on SK-OV-3 ovarian, 15 µM in the test with UACC-257 melanoma, 4.09 µM with LOX IMVI melanoma and 4.41 µM in the test with OVCAR-8 ovarian. Also, the TGI with PC-3 prostate is over 100 µM; with SK-MEL-5 melanoma it was 29.9 µM; with HCT-116 colon, 17.9 µM; with SW-620 colon, 29.8 µM; in the test on IGROV1 ovarian, 17 µM; with CAKI-1 renal it was 5.73 µM. In addition, the TGI in the test on SK-OV-3 ovarian was 67 µM; with UACC-257 melanoma it was 64.1 µM; in the test with LOX IMVI melanoma, 26.2 µM; with OVCAR-8 ovarian it was over 100 µM.

With `S=C1SCN(Cc2ccccc2)CN1Cc1ccco1`, the GI50 with PC-3 prostate was 5.75 µM; in the test with SK-MEL-5 melanoma, 11.7 µM; in the test with HCT-116 colon it was 1.47 µM; in the test with SW-620 colon, 4.52 µM; with IGROV1 ovarian, 8.47 µM; in the test on CAKI-1 renal, 4.81 µM. The GI50 in the test with SK-OV-3 ovarian was 12.9 µM; with UACC-257 melanoma, 6.28 µM; in the test on LOX IMVI melanoma, 1.88 µM; with OVCAR-8 ovarian, 5.71 µM. For the same molecule, the TGI in the test on PC-3 prostate amounted to 61.6 µM; in the test with SK-MEL-5 melanoma, 26.9 µM; in the test with HCT-116 colon, 12.3 µM; with SW-620 colon, 18.1 µM; in the test with IGROV1 ovarian, 26.4 µM; in the test with CAKI-1 renal, 17.4 µM. In addition, the TGI in the test on SK-OV-3 ovarian turned out to be 52.7 µM; in the test on UACC-257 melanoma, 20.7 µM; with LOX IMVI melanoma, 10.2 µM; in the test with OVCAR-8 ovarian, 32 µM.

As to `CN(C)c1ccc(-c2cc(-c3ccc(Nc4nc(Nc5ccc(Cl)cc5)nc(Nc5ccc(Cl)cc5)n4)cc3)nc(N)c2C#N)cc1`, the GI50 in the test with PC-3 prostate was 1.53 µM; with SK-MEL-5 melanoma, 4.56 µM; in the test with HCT-116 colon it was 4.99 µM; in the test on SW-620 colon, 5.6 µM; in the test with IGROV1 ovarian, 4.53 µM; in the test on CAKI-1 renal, over 100 µM. The GI50 was over 100 µM with SK-OV-3 ovarian, 12.3 µM in the test on UACC-257 melanoma, 18.9 µM with LOX IMVI melanoma and 6.38 µM in the test with OVCAR-8 ovarian. The TGI in the test on PC-3 prostate is 7.44 µM; in the test on SK-MEL-5 melanoma, over 100 µM; with HCT-116 colon, over 100 µM; in the test with SW-620 colon it was 22.7 µM; in the test with IGROV1 ovarian it was over 100 µM; with CAKI-1 renal it was over 100 µM. The TGI in the test with SK-OV-3 ovarian, in the test on UACC-257 melanoma, in the test on LOX IMVI melanoma and with OVCAR-8 ovarian was over 100 µM throughout.

In the case of `Cn1c(=O)c2nc3sc4c(n3c2n(C)c1=O)C(=O)c1ccccc1C4=O`, the TGI in the test on PC-3 prostate is over 76.1 µM; in the test on SK-MEL-5 melanoma, over 100 µM; in the test with HCT-116 colon, over 71.4 µM; in the test on SW-620 colon it was over 81.9 µM; with IGROV1 ovarian, over 69 µM; with CAKI-1 renal, over 100 µM. Moreover, the TGI in the test with SK-OV-3 ovarian is over 60.9 µM; in the test with UACC-257 melanoma, over 100 µM; with LOX IMVI melanoma, over 54.7 µM; in the test with OVCAR-8 ovarian, over 74.2 µM.

Consider `COc1ccc(/C=C2\CCC/C(=C\c3ccc(OC)c(OC)c3)C2=O)cc1OC`, for which the GI50 was 2.83 µM with PC-3 prostate; 1.88 µM in the test on SK-MEL-5 melanoma; 1.14 µM in the test on HCT-116 colon; 1.49 µM in the test with SW-620 colon; 1.72 µM in the test on IGROV1 ovarian; 1.13 µM in the test with CAKI-1 renal. Further, the GI50 in the test with SK-OV-3 ovarian was 12.1 µM; in the test on UACC-257 melanoma, 4.65 µM; with LOX IMVI melanoma, 1.15 µM; with OVCAR-8 ovarian, 1.16 µM. The TGI was over 32.5 µM in the test on PC-3 prostate; over 32.5 µM with SK-MEL-5 melanoma; 5.07 µM with HCT-116 colon; 24.1 µM with SW-620 colon; over 32.5 µM in the test with IGROV1 ovarian; 8.16 µM in the test with CAKI-1 renal. In addition, the TGI with SK-OV-3 ovarian is over 32.5 µM; in the test with UACC-257 melanoma, over 32.5 µM; in the test on LOX IMVI melanoma, 9.02 µM; in the test with OVCAR-8 ovarian, over 32.5 µM.

With `COC12C(COC(=O)NCCO)C3=C(C(=O)C(C)=C(N)C3=O)N1CC1NC12` (centres undefined), the TGI with PC-3 prostate was 248 µM; in the test with SK-MEL-5 melanoma it was 45 µM and 58.2 µM; in the test on HCT-116 colon, 114 µM; with SW-620 colon, 110 µM; in the test with IGROV1 ovarian, 116 µM; with CAKI-1 renal it was 28.2 µM and 21.7 µM. Besides, the TGI in the test with SK-OV-3 ovarian is over 264 µM; in the test with UACC-257 melanoma it was 238 µM; with LOX IMVI melanoma, 64.7 µM; in the test with OVCAR-8 ovarian, over 264 µM. For the same molecule, the GI50 was 23.9 µM with SK-MEL-5 melanoma; 35.1 µM in the test on HCT-116 colon; 26.7 µM with SW-620 colon; 39.8 µM with IGROV1 ovarian; 4.99 µM in the test on CAKI-1 renal; 100 µM in the test on SK-OV-3 ovarian. In addition, the figures for the GI50 in the test with UACC-257 melanoma, with LOX IMVI melanoma and in the test with OVCAR-8 ovarian were 79.1 µM, 22.2 µM and 55 µM, respectively.

`C#Cc1ccc(-n2c(/C=C/c3ccc(O)cc3)nc3ncccc3c2=O)cc1`: the GI50 in the test with PC-3 prostate was 3.87 µM; in the test on SK-MEL-5 melanoma it was 2.24 µM; with HCT-116 colon, 5.07 µM; in the test on SW-620 colon it was 3.55 µM; in the test with IGROV1 ovarian, 4.69 µM; in the test on CAKI-1 renal it was 4.15 µM. Further, the GI50 was 3.38 µM in the test with SK-OV-3 ovarian, 6.3 µM in the test on UACC-257 melanoma, 5.35 µM in the test on LOX IMVI melanoma and 4.39 µM in the test on OVCAR-8 ovarian. The TGI in the test on PC-3 prostate was 47.9 µM; with SK-MEL-5 melanoma it was 7.45 µM; in the test on HCT-116 colon it was over 100 µM; in the test on SW-620 colon, over 100 µM; in the test with IGROV1 ovarian, 35.4 µM; in the test on CAKI-1 renal, over 100 µM. The TGI is 29.1 µM in the test with SK-OV-3 ovarian, over 100 µM with UACC-257 melanoma, over 100 µM with LOX IMVI melanoma and 47 µM with OVCAR-8 ovarian.
